Laboratory results from US11884675B2, “Heterocyclic compounds as triggering receptor expressed on myeloid cells 2 agonists and methods of use” (AMGEN INC., priority 2020, dated 2024).

The compounds below were run against hTREM2 (Homo sapiens, UniProt Q9NZC2) (assay: TREM2 activity by cellular Syk phosphorylation (AlphaScreen/AlphaLISA) in TREM2/DAP12-HEK cells, used for Examples 1-305). Conditions: HEK293 Cells.
Assay type: cell-based
Design: expressed in transfected cells
How it was run: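 Phospho-Syk (Tyr525/526) over total Syk quantified by AlphaScreen in lysates of cloned TREM2/DAP12-overexpressing HEK293 cells after 45 min compound treatment at room temperature, 1% final DMSO. Values expressed relative to 100 nM anti-TREM2 antibody (positive) and isotype IgG (negative) controls; curves fitted with 4-parameter logistic model.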

hTREM2, sequence (Q9NZC2 19-230): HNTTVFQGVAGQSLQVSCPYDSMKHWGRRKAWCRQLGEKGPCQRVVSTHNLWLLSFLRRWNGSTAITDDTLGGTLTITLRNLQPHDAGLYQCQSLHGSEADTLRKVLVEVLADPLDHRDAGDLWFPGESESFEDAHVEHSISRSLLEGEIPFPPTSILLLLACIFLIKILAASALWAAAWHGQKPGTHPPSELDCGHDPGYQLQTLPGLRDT
hTREM2, sequence (O43914 22-113 partner): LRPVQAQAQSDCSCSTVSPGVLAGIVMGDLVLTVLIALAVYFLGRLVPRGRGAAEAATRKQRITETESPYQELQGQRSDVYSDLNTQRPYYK

Row | EC50 [nM] | hTREM2 Emax | SMILES
1 | 500 to 3000 | ++ (Emax>100 and ≤150) | Cc1nc2nc(N3CCO[C@@H](c4cnn(C)c4)C3)nc([C@@H]3C[C@H]3C(F)(F)F)c2nc1C [Example 57, 6,7-dimethyl-2-((2S)-2-(1-methyl-1H-pyrazol-4-yl)-4-morpholinyl)-4-((1R,2R)-2-(trifluoromethyl)cyclopropyl)pteridine]
2 | ≤ 50 | +++ (Emax>150 and ≤250) | Cc1cc([C@H]2C[C@H](c3nc(-c4ccc(F)cc4F)c4cc(C)c(C)nc4n3)CCO2)ccn1 (single isomer, unassigned) [Example 228]
3 |  | +++ (Emax>150 and ≤250) | Cc1cc([C@H]2CN(c3nc(-c4ccc(C(F)(F)F)nc4)c4nc(C)c(C)nc4n3)CCO2)ccn1 [Example 293, (S)-4-(6,7-dimethyl-4-(6-(trifluoromethyl)pyridin-3-yl)pteridin-2-yl)-2-(2-methylpyridin-4-yl)morpholine]
4 | ≤ 50 | ++++ (Emax>250) | Cc1cc2c(-c3ccc(F)cc3F)nc(N3CCO[C@@H](c4cnn(C)c4)C3)nc2nc1C [Example 166, 4-(2,4-difluorophenyl)-6,7-dimethyl-2((2S)-2-(1-methyl-1H-pyrazol-4-yl)-4-morpholinyl) pyrido[2,3-d]pyrimidine]
5 | 50 to 500 | + (Emax>45 and ≤100) | Cc1nc2nc(N3CCO[C@@H](c4cnn(C)c4)C3)nc(CCC(F)(F)F)c2nc1C [Example 40, 6,7-dimethyl-2-((2S)-2-(1-methyl-1H-pyrazol-4-yl)-4-morpholinyl)-4-(3,3,3-trifluoropropyl)pteridine]
6 | ≤ 50 | +++ (Emax>150 and ≤250) | Cc1cc([C@H]2C[C@@H](c3cc4nc(C)c(C)nc4c(-c4ccc(Cl)cc4F)n3)CCO2)ccn1 (single isomer, unassigned) [Example 218]
7 | 500 to 3000 | + (Emax>45 and ≤100) | Cc1nc2nc(N3CCO[C@@H](c4cnn(C)c4)C3)nc(C3=CCCC3)c2nc1C [Example 128, 4-(1-cyclopenten-1-yl)-6,7-dimethyl-2-((2S)-2-(1-methyl-1H-pyrazol-4-yl)-4-morpholinyl)pteridine]
8 | 50 to 500 | + (Emax>45 and ≤100) | Cc1cc2c(OCC3CC(F)(F)C3)nc(N3CCO[C@@H](c4cnn(C)c4)C3)nc2nc1C [Example 108, 4-((3,3-difluorocyclobutyl)methoxy)-6,7-dimethyl-2-((2S)-2-(1-methyl-1H-pyrazol-4-yl)-4-morpholinyl)pyrido[2,3-d]pyrimidine]
9 | ≤ 50 | ++++ (Emax>250) | Cc1cc([C@H]2CN(c3nc(-c4ccc(Cl)cc4F)c4ccc(C)nc4n3)CCO2)ccn1 [Example 88, 4-(4-chloro-2-fluorophenyl)-7-methyl-2-((2S)-2-(2-methyl-4-pyridinyl)-4-morpholinyl)pyrido[2,3-d]pyrimidine]
10 | 50 to 500 | ++ (Emax>100 and ≤150) | Cc1cnc2c(n1)nc(N1CCO[C@@H](c3cnn(C)c3)C1)nc2[C@H]1C[C@H](C(F)(F)F)C1 [Example 11, 7-methyl-2-((2S)-2-(1-methyl-1H-pyrazol-4-yl)-4-morpholinyl)-4-(trans-3-(trifluoromethyl)cyclobutyl)pteridine]
11 | 50 to 500 | +++ (Emax>150 and ≤250) | Cc1ccc2c(C3CCC(F)(F)CC3)nc(N3CCO[C@@H](c4cnn(C5CC5)c4)C3)nc2n1 [Example 143, 2-((2S)-2-(1-cyclopropyl-1H-pyrazol-4-yl)-4-morpholinyl)-4-(4,4-difluorocyclohexyl)-7-methylpyrido [2,3-d]pyrimidine]
12 | 50 to 500 | ++++ (Emax>250) | Cc1cc([C@@H]2C[C@H](c3nc(-c4ccc(F)cc4F)c4nc(C)c(C)nc4n3)CCO2)ccn1 (single isomer, unassigned) [Example 210]
13 | 500 to 3000 | ++++ (Emax>250) | Cc1ccc(-c2nc([C@H]3CCO[C@H](c4cnn(C)c4)C3)nc3nc(C)c(C)nc23)c(F)c1 [Example 264, 4-(2-fluoro-4-methylphenyl)-6,7-dimethyl-2-((2S,4S)-2-(1-methyl-1H-pyrazol-4-yl)tetrahydro-2H-pyran-4-yl)pteridine]
14 | 500 to 3000 | ++ (Emax>100 and ≤150) | Cn1cc([C@H]2CN(c3nc(-c4ccc(Cl)cc4F)c4ccc(Cl)nc4n3)CCO2)cn1 [Example 283, (S)-4-(7-chloro-4-(4-chloro-2-fluorophenyl)pyrido[2,3-d]pyrimidin-2-yl)-2-(1-methyl-1H-pyrazol-4-yl)morpholine]
15 | ≤ 50 | ++++ (Emax>250) | Cc1cc([C@H]2CN(c3nc(-c4ccc(Cl)cc4F)c4nc(C)c(C)nc4n3)CCO2)ccn1 [Example 23, 4-(4-chloro-2-fluorophenyl)-6,7-dimethyl-2-((2S)-2-(2-methyl-4-pyridinyl)-4-morpholinyl)pteridine]
16 | ≤ 50 | +++ (Emax>150 and ≤250) | Cc1cnc2c(-c3ccc(F)cc3F)nc(N3CCO[C@@H](c4cnn(C5CC5)c4)C3)nc2n1 [Example 7, 2-((2S)-2-(1-cyclopropyl-1H-pyrazol-4-yl)-4-morpholinyl)-4-(2,4-difluorophenyl)-7-methylpteridine]

Continued, compound first:

Row | SMILES | EC50 [nM] | hTREM2 Emax
17 | Cc1nc2nc(N3CCO[C@@H](c4cnn(C)c4)C3)nc(C3CCCCC3)c2nc1C [Example 134, 4-cyclohexyl-6,7-dimethyl-2-((2S)-2-(1-methyl-1H-pyrazol-4-yl)-4-morpholinyl)pteridine] | 50 to 500 | + (Emax>45 and ≤100)
18 | Cc1nc2nc(N3CCO[C@@H](c4cnn(C5CC5)c4)C3)nc(C34CC(C(F)(F)F)(C3)C4)c2nc1C [Example 64, 2-((2S)-2-(1-cyclopropyl-1H-pyrazol-4-yl)-4-morpholinyl)-6,7-dimethyl-4-(3-(trifluoromethyl)bicyclo[1.1.1]pentan-1-yl)pteridine] | ≤ 50 | +++ (Emax>150 and ≤250)
19 | Cc1nc2nc(N3CCO[C@@H](c4cnn(C)c4)C3)nc(N3CCC(C)(C)CC3)c2nc1C [Example 67, 4-(4,4-dimethyl-1-piperidinyl)-6,7-dimethyl-2-((2S)-2-(1-methyl-1H-pyrazol-4-yl)-4-morpholinyl)pteridine] | 50 to 500 | + (Emax>45 and ≤100)
20 | Cc1cnc2c(-c3ccc(Cl)cc3F)nc([C@@H]3CCO[C@H](c4cnc(C)nc4)C3)nc2n1 (single isomer, unassigned) [Example 174] | 50 to 500 | +++ (Emax>150 and ≤250)
21 | Cc1cc([C@H]2C[C@@H](c3nc(-c4ccc(F)cc4F)c4nc(C)c(C)nc4n3)CCO2)ccn1 (single isomer, unassigned) [Example 211] | ≤ 50 | ++++ (Emax>250)
22 | Cc1ccc(-c2nc(N3CCO[C@@H](c4cnn(C)c4)C3)nc3nc(C)c(C)nc23)cn1 [Example 20, 6,7-dimethyl-2-((2S)-2-(1-methyl-1H-pyrazol-4-yl)-4-morpholinyl)-4-(6-methyl-3-pyridinyl)pteridine] | 500 to 3000 | +++ (Emax>150 and ≤250)
23 | Cc1nc2nc(N3CCO[C@@H](c4cnn(C)c4)C3)nc(-c3ccc(F)c(F)c3F)c2nc1C [Example 61, 6,7-dimethyl-2-((2S)-2-(1-methyl-1H-pyrazol-4-yl)-4-morpholinyl)-4-(2,3,4-trifluorophenyl)pteridine] | ≤ 50 | +++ (Emax>150 and ≤250)
24 | Cc1cc2c(-c3ccc(Cl)cc3F)nc([C@H]3C[C@@H](C)O[C@@H](c4cnn(C)c4)C3)nc2nc1C (single isomer, unassigned) [Example 229] | ≤ 50 | +++ (Emax>150 and ≤250)
25 | COc1cc([C@H]2C[C@@H](c3nc(-c4ccc(Cl)cc4F)c4nc(C)c(C)nc4n3)CCO2)ccn1 (single isomer, unassigned) [Example 208] | ≤ 50 | +++ (Emax>150 and ≤250)
26 | Cc1nc2nc([C@@H]3CCO[C@H](c4cnn(C5CC5)c4)C3)nc(-c3ccc(Cl)cc3F)c2nc1C (single isomer, unassigned) [Example 180] | 50 to 500 | +++ (Emax>150 and ≤250)
27 | Cc1nc2nc(N3CC[C@H](C(F)F)C3)nc(-c3ccc(F)cc3F)c2nc1C [Example 244, (S)-2-(3-(difluoromethyl)pyrrolidin-1-yl)-4-(2,4-difluorophenyl)-6,7-dimethylpteridine] | 500 to 3000 | +++ (Emax>150 and ≤250)
28 | Cc1ccc(-c2nc([C@@H]3CCO[C@H](c4cnn(C)c4)C3)cc3nc(C)c(C)nc23)c(F)c1 [Example 258, 5-(2-fluoro-4-methylphenyl)-2,3-dimethyl-7-((2S,4R)-2-(1-methyl-1H-pyrazol-4-yl)tetrahydro-2H-pyran-4-yl)pyrido[3,4-b]pyrazine] | 500 to 3000 | +++ (Emax>150 and ≤250)
29 | Cc1cnc2c(C34CC(C(F)(F)F)(C3)C4)nc(N3CCO[C@@H](c4cnn(C5CC5)c4)C3)nc2n1 [Example 231, (S)-2-(1-cyclopropyl-1H-pyrazol-4-yl)-4-(7-methyl-4-(3-(trifluoromethyl)bicyclo[1.1.1]pentan-1-yl)pteridin-2-yl)morpholine] | ≤ 50 | +++ (Emax>150 and ≤250)
30 | Cc1cc([C@H]2CN(c3nc4nc(C)ccc4c([C@H]4C[C@H](C(F)(F)F)C4)n3)CCO2)ccn1 [Example 99, 7-methyl-2-((2S)-2-(2-methyl-4-pyridinyl)-4-morpholinyl)-4-(trans-3-(trifluoromethyl)cyclobutyl)pyrido[2,3-d]pyrimidine] | ≤ 50 | + (Emax>45 and ≤100)
31 | Cc1nc2nc(N3CCO[C@@H](c4cnn(C)c4)C3)nc([C@H]3C[C@H](C(F)(F)F)C3)c2nc1C [Example 42, 6,7-dimethyl-2-((2S)-2-(1-methyl-1H-pyrazol-4-yl)-4-morpholinyl)-4-(trans-3-(trifluoromethyl)cyclobutyl)pteridine] | ≤ 50 | ++ (Emax>100 and ≤150)
